Data from PMC10269165 (Antimicrobial Agents and Chemotherapy, 2023).
Read-outs that look alike come from different tables or passages of the source.

Experiments:
[1] = molecular target: DvPMT1 (Dictyocaulus viviparus, UniProt A0A0D8Y714); experiment: biochemical; format: biochemical; conditions: for Selectivity index (SI) DvPMT1: IC50^Cytotoxicity/IC50^Enzyme;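 for Selectivity index (SI) DvPMT1: cytotoxicity IC50 measured in HCT-8 cells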
Procedure: (§1) The chemical compounds were obtained from the National Cancer Institute/Developmental Therapeutics Program Open Chemical Repository. […] Compounds were individually reconstituted in molecular biology grade dimethyl sulfoxide (DMSO) from Sigma-Aldrich to a stock concentration of 10 mM and stored at −20°C until use. Initial screening was conducted using recombinant HcPMT1 protein as enzyme in the methyltransferase assay, with test compounds at a final concentration of 40 μM. […] To the positive reaction mixture, instead of test compound, an equivalent volume of DMSO was added. In the negative-control reaction mixture, instead of HcPMT1 and test compound, equivalent volumes of 1× transferase buffer and DMSO, respectively, were added. Detection buffer (100 μL) containing fluorescence substrate was added into each reaction mixture. The reactions were prepared in triplicate wells in 96-well plates. The plates were covered in aluminum foil and incubated at room temperature with agitation for 30 min, followed by reading the fluorescence at 380EX/520EM. The mean percent inhibition (MPI) of the test compound on enzymatic activity was calculated using the following formula: MPI = ΔRFUpositive control − ΔRFUcompounds/ΔRFUpositive control × 100, where the positive control is a reaction without compound but with recombinant PMT protein and a volume of DMSO equivalent to that of compound used in test reactions; the negative control is the reaction without protein and compounds, but with volumes of dialysis buffer and DMSO equivalent to protein and compound added in the test reaction mixtures, respectively; ΔRFUpositive control represents the absolute relative fluorescence units (RFU) for the positive control, which equals RFUpositive control – RFUnegative control; and ΔRFUcompounds represents the absolute RFU value for the sample with the compounds, which equals RFUcompounds – RFUnegative control.
(§2) The enzymatic assay was set up as described above, with the respective PMT protein as enzyme.

[2] = molecular target: HcPMT1 (Haemonchus contortus, UniProt U5HK46); experiment: biochemical; format: biochemical; conditions: for Selectivity index (SI) HcPMT1: IC50^Cytotoxicity/IC50^Enzyme
Chain of HcPMT1 (U5HK46 entry or part of it): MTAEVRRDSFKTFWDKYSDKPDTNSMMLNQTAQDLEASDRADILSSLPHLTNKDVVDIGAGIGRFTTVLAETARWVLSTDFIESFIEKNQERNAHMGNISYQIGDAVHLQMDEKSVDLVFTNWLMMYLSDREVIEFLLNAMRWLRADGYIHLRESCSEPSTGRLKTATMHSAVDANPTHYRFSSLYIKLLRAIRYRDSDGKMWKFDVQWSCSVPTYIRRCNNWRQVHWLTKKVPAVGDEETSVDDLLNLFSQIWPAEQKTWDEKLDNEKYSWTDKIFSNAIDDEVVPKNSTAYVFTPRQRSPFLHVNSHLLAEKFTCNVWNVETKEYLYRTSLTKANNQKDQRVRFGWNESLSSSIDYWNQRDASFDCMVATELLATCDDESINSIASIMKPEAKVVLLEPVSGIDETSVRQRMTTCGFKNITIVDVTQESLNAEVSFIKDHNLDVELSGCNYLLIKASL
Procedure: as §1, §2

[3] = molecular target: TcPMT (Toxocara canis, UniProt A0A0B2VTW9); experiment: biochemical; format: biochemical; conditions: for Selectivity index (SI) TcPMT: IC50^Cytotoxicity/IC50^Enzyme;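 for Selectivity index (SI) TcPMT: cytotoxicity IC50 measured in HCT-8 cells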
Chain of TcPMT (A0A0B2VTW9 entry or part of it): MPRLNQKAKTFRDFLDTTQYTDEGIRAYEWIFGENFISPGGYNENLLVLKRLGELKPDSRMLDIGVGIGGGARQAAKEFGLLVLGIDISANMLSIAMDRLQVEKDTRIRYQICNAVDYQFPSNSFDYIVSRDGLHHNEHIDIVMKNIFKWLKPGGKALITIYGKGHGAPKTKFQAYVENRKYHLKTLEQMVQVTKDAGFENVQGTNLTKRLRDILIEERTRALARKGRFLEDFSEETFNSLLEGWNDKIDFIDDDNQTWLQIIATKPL
Procedure: as §1, §2

[4] = molecular target: AcPMT1 (Ancylostoma duodenale, UniProt A0A0C2DEB6); experiment: biochemical; format: biochemical; conditions: for Selectivity index (SI) AcPMT1: IC50^Cytotoxicity/IC50^Enzyme;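 for Selectivity index (SI) AcPMT1: cytotoxicity IC50 measured in HCT-8 cells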
Chain of AcPMT1 (A0A0C2DEB6 entry or part of it): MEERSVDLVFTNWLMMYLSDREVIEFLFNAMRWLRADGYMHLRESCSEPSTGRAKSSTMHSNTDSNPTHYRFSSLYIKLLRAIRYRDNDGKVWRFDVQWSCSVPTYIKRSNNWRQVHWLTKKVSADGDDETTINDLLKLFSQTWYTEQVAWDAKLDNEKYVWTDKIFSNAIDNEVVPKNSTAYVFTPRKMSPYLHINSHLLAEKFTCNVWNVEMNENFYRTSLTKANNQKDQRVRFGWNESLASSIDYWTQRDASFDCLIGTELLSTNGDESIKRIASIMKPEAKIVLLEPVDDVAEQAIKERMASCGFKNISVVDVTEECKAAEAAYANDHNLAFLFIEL
Procedure: as §1, §2

[5] = molecular target: OdPMT (Oesophagostomum dentatum, UniProt A0A0B1TAL6); experiment: biochemical; format: biochemical; conditions: for Selectivity index (SI) OdPMT: IC50^Cytotoxicity/IC50^Enzyme
Chain of OdPMT (A0A0B1TAL6 entry or part of it): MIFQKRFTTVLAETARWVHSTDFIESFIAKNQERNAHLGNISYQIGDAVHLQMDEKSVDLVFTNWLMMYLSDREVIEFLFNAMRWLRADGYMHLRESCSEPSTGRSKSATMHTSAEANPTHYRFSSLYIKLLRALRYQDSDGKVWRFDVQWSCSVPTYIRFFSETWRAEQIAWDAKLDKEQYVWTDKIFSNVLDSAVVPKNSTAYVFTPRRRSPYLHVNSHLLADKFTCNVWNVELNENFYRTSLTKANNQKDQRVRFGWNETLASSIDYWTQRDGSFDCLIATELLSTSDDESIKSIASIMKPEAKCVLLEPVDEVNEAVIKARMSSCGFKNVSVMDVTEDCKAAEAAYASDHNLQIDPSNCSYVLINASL
Procedure: as §1, §2

[6] = molecular target: AsPMT (Ascaris suum, UniProt F1L4B9); format: biochemical; conditions: for Selectivity index (SI) AsPMT: IC50^Cytotoxicity/IC50^Enzyme; for IC50: read-out: Mean IC50 ± SEM, Enzyme AsPMT;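 for Selectivity index (SI) AsPMT: cytotoxicity IC50 measured in HCT-8 cells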
Chain of AsPMT (F1L4B9 entry or part of it): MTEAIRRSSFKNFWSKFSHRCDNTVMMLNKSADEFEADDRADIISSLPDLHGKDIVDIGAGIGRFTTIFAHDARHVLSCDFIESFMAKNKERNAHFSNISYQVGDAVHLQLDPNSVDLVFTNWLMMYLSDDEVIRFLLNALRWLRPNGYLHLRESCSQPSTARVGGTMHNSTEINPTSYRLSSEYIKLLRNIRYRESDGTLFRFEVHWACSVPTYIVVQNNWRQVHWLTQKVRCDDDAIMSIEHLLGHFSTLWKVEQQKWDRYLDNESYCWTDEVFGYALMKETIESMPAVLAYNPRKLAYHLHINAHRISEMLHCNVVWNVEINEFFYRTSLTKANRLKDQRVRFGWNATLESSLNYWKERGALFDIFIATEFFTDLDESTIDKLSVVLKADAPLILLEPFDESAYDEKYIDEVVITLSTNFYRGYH
Procedure: as §1, §2

[7] = test system: HcPMT1+2-complemented pem1Δ/pem2Δ S. cerevisiae; experiment: Growth inhibition of complemented yeast; format: cell-based, Saccharomyces cerevisiae; conditions: read-out: Mean growth inhibition EC50 ± SEM on complemented yeast, HcPMT1+2
Procedure: (§3) To determine the effect of PMT inhibitors on the growth of PMT- and LacZ-complemented pem1Δpem2Δ S. cerevisiae, the yeast cells were first starved of choline as described above, and the cells were diluted to an OD600 of ~0.6. The PMT-complemented yeast cells were cultured in SG medium (3.4g/L yeast nitrogen base without amino acids, 2% galactose, 30 mg/L histidine, 100 mg/L leucine, 100 mg/L adenine, and 50 mg/L tryptophan) supplemented with 1 mM ethanolamine hydrochloride, while the LacZ-complemented yeast cells were cultured in SG medium supplemented with 1 mM choline chloride. Compounds that depicted cross-inhibitory activity against PMT proteins in vitro were added at various concentrations to the cultures. As a negative control, DMSO (at a final concentration not exceeding 2% [vol/vol]) was added to yeast cultures designated control cultures. The cultures were incubated at 30°C with shaking at 275 rpm for 4 days. On a daily basis during the course of culture, 200-μL portions of culture aliquots were taken, and their OD600s were measured using a microplate reader. In preliminary work, we had observed that the growth of PMT- and LacZ-complemented pem1Δpem2Δ S. cerevisiae plateaued at 3 to 4 days of culture. Therefore, to determine the inhibitory effect of nematode PMT inhibitors on the growth of PMT- and LacZ-complemented pem1Δpem2Δ S. cerevisiae, measurements taken on day 3 were used. The results were presented as percentage of growth rate using the following formula: PGR = growth rate (plus inhibitor)/growth rate (minus inhibitor) × 100 where the percent growth rate (PGR) is the growth rate of inhibitor-treated PMT- or LacZ- complemented Pem1Δpem2Δ S. cerevisiae, considering the growth rate of untreated PMT- or LacZ- complemented Pem1Δpem2Δ S. cerevisiae is 100%; the growth rate = ΔA600^Day 3/ΔA600^Day 0; ΔA600^Day 0 is the absolute value of A600 of PMT- or LacZ- complemented pem1Δ/pem2Δ S. cerevisiae at day 0, which equals the A600 of the culture minus the A600 of the growth medium only; ΔA600^Day 3 is the absolute value of the A600 of PMT- or LacZ complemented pem1Δ/pem2Δ S. cerevisiae at day 3, which equals the A600 of the culture at day 3 minus the A600 of growth medium only; the growth rate (plus inhibitor) is the growth rate of PMT- or -LacZ complemented pem1Δpem2Δ S. cerevisiae in the presence of test compound; and the growth rate (minus inhibitor) is the growth rate of the PMT- or LacZ complemented pem1Δ/pem2Δ S. cerevisiae in the absence of test compound, but with a volume of DMSO equal to that of compound added in the treated culture. The dose-response curves were generated with GraphPad Prism software and IC50 concentrations of the compounds in PMT- and LacZ-complemented yeast cells derived.

[8] = test system: OdPMT-complemented pem1Δ/pem2Δ S. cerevisiae; experiment: Growth inhibition of complemented yeast; format: cell-based, Saccharomyces cerevisiae; conditions: read-out: Mean growth inhibition EC50 ± SEM on complemented yeast, OdPMT
Procedure: as §3

[9] = test system: H. contortus, susceptible (TxPh-2011-S) and MDR (UGA MDR 2020) isolates; experiment: Larval development assay (LDA); format: cell-based, Haemonchus contortus; conditions: for Hill slope: LDA dose-response curve; for anthelmintic activity in LDA: drug-susceptible and MDR isolates
[10] = read-out: Mean IC50 ± SEM, Enzyme DvPMT1
[11] = read-out: Mean IC50 ± SEM, Enzyme HcPMT1
[12] = read-out: Mean IC50 ± SEM, Enzyme TcPMT
[13] = read-out: Mean IC50 ± SEM, Enzyme AcPMT1
[14] = read-out: Mean IC50 ± SEM, Enzyme OdPMT
[15] = medium with ethanolamine, no choline, day 3
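Throughout, for Selectivity index (SI) HcPMT1: cytotoxicity IC50 measured in HCT-8 cells.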
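Throughout, for Selectivity index (SI) OdPMT: cytotoxicity IC50 measured in HCT-8 cells.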

Chain of DvPMT1 (A0A0D8Y714 entry or part of it): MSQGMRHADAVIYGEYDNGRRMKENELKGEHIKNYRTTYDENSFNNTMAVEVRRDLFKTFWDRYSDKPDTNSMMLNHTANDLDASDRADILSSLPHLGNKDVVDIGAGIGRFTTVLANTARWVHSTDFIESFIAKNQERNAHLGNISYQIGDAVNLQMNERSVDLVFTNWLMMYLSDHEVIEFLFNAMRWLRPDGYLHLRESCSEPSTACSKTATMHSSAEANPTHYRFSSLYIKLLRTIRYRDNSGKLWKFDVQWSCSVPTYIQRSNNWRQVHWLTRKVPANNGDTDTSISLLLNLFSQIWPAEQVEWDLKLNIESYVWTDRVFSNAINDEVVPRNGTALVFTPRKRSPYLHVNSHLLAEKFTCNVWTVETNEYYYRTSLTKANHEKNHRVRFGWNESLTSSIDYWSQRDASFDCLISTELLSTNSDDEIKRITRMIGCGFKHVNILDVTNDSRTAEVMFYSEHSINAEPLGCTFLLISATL

Compound	Selectivity index (SI) DvPMT1 [1]	IC50 [1, 10] [µM]	Selectivity index (SI) HcPMT1 [2]	IC50 [2, 11] [µM]	Selectivity index (SI) TcPMT [3]	IC50 [3, 12] [µM]	Selectivity index (SI) AcPMT1 [4]	IC50 [4, 13] [µM]	Selectivity index (SI) OdPMT [5]	IC50 [5, 14] [µM]	Selectivity index (SI) AsPMT [6]	IC50 [6] [µM]	fold higher potency than NSC145612 ([9]; LDA IC50)	Hill slope [9]	anthelmintic activity in LDA [9]	EC50 [7, 15] [µM]	EC50 [8, 15] [µM]	also measured
O=c1c(O)cccc2cc(O)c(O)c(O)c12 [NSC35676, purpurogallin]	13.44	42.1 ± 3.16	27.96	20.2 ± 1.64	12.35	45.9 ± 2.9	49.02	11.5 ± 0.94	33.80	16.8 ± 0.41	45.59	12.4 ± 1.1						EC50 ([7]; Saccharomyces cerevisiae, 72 h): 5.45 ± 0.95 µM; EC50 ([8]; Saccharomyces cerevisiae, 72 h): 3.98 ± 1.08 µM
CO[C@@]12[C@H](COC(N)=O)C3=C(C(=O)C(C)=C(N)C3=O)N1C[C@H]1[C@@H]2N1C (stereo partly shown) [NSC56410]	0.10		3.52		2.23		2.75		0.90		3.24	58.1 ± 12.9	~39 fold	0.45	activity in the lower micromolar range			IC50 [1]: 1920 µM; IC50 [2]: 53.5 ± 5.85 µM; IC50 [3]: 84.5 ± 6.53 µM; IC50 [4]: 68.4 ± 5.39 µM; IC50 [5]: 210 ± 73.5 µM; IC50 ([9]; Haemonchus contortus, read-out: Anthelmintic IC50 by LDA (95% confidence interval)): 0.8 µM; fold higher potency than NSC133100 ([9]; LDA IC50): ~ 5 fold; fold higher potency than NSC177383 ([9]; LDA IC50): ~6 fold; EC50 ([7]; Saccharomyces cerevisiae, 72 h): 1.48 ± 0.21 µM; EC50 ([8]; Saccharomyces cerevisiae, 72 h): 37.6 ± 4.87 µM
COc1ccc(-c2c(C)c(C(=O)O)nc(-c3ccc4c(O)c(OC)c5c(c4n3)=NC(C)(C)N=5)c2N)c(O)c1OC [NSC62709]	10.24	29.2 ± 2.13	10.86	27.5 ± 1.97	10.83	27.6 ± 1.26	22.31	13.4 ± 1.3	9.39	31.8 ± 1.8	6.75	44.3 ± 1.35				3.03 ± 0.26	19.5 ± 2.56	
COc1cc(C)c2c(c1C=O)Oc1c(c(C)c(O)c3c1C(O)OC3=O)OC2=O (stereo not shown) [NSC87511]	0.34	504 ± 188	1.10	157 ± 26	0.35	496 ± 184	2.61	65.8 ± 9.78	0.35	488 ± 162	0.97	177 ± 15.6				2.08 ± 0.29	57.9 ± 5.18	
CO[C@H]1/C=C/O[C@@]2(C)Oc3c(C)c(O)c4c(O)c(cc(O)c4c3C2=O)NC(=O)/C(C)=C\C=C\[C@H](C)[C@H](O)[C@@H](C)[C@@H](O)[C@@H](C)[C@H](OC(C)=O)[C@@H]1C [NSC133100]	1.15	88.2 ± 4.14	3.67	27.8 ± 1.71	1.03	99.1 ± 9	3.23	31.5 ± 2.25	1.07	94.7 ± 5.03	3.00	34 ± 2.85	~ 7 fold	0.60	activity in the lower micromolar range	18.7 ± 2.07	36.6 ± 8.4	
CO[C@@H]1/C=C\O[C@]2(C)Oc3c(C)c(O)c4c(O)c(c(CN(C)C)c(O)c4c3C2=O)NC(=O)/C(C)=C\C=C[C@@H](C)[C@@H](O)[C@H](C)[C@@H](O)[C@H](C)[C@H](OC(C)=O)[C@@H]1C [NSC145612]	5.49	55.1 ± 4.46	10.83	27.9 ± 1.57	2.77	109 ± 12.6	11.05	27.4 ± 2.92	9.11	33.2 ± 2.26	6.67	45.3 ± 1.71		0.79	activity in the lower micromolar range	8.28 ± 0.99	32.8 ± 2.64	
CO[C@@H]1/C=C/O[C@@]2(C)Oc3c(C)c(O)c4c(c3C2=O)C(=N[C@@H]2CC[C@@H](O)O[C@H]2C)C=C(NC(=O)/C(C)=C\C(=O)[C@@H]2C[C@@H]2[C@H](O)[C@@H](C)[C@@H](O)[C@@H](C)[C@H](OC(C)=O)[C@@H]1C)C4=O [NSC177383]	1.80	47.6 ± 7.41	3.93	21.7 ± 2.05	2.07	41.3 ± 2.8	5.76	14.8 ± 2.06	3.20	26.7 ± 2	3.47	24.6 ± 1.79	~ 7 fold	1.23	activity in the lower micromolar range	6.11 ± 1.84	19.8 ± 3.9	
